Assay results taken from patent US5807846A, “Phosphonamide ACAT inhibitors” (Warner-Lambert Company, priority 1997, dated 1998).
Where two headings read alike, the source gives them in different places. Values belong to the molecule of their own block, whether it stands above or below them.

Experiments:
[1] = biological target: acyl-CoA:cholesterol acyltransferase (ACAT); assay: in vitro ACAT inhibition (LAI): radiolabeled cholesterol oleate formed from radiolabeled oleic acid in rat liver microsomes; format: biochemical; conditions: read-out: LAI (IC50, concentration of test compound required to inhibit the activity of the enzyme by 50%)
Text: The test assesses the ability of a test compound to inhibit the acylation of cholesterol by oleic acid by measuring the amount of radiolabeled cholesterol oleate formed from radiolabeled oleic acid in a tissue preparation containing rat liver microsomes.

[2] = system: cholesterol; assay: APCC in vivo screen: rats on high fat, high cholesterol diet (PCC), blood cholesterol analysis; set-up: species or system male Sprague-Dawley rats
Text: In one in vivo screen designated APCC, male Sprague-Dawley rats (200 to 225 g) were randomly divided into treatment groups and dosed at 4 PM with either vehicle (CMC/Tween) or suspensions of compounds in vehicle. The normal chow diet was then replaced with a high fat, high cholesterol diet (designated PCC) containing 0.5% cholic acid. The rats consumed this diet ad libitum during the night and were sacrificed at 8 AM to obtain blood samples for cholesterol analysis using standard procedures. Statistical differences between mean cholesterol values for the same vehicle were determined using analysis of variance followed by Fisher's least significant test.

SMILES: COP(=O)(NC(=O)Cc1c(C(C)C)cc(C(C)C)cc1C(C)C)Oc1c(C(C)C)cc(Cl)cc1C(C)C (stereo not drawn) [Cl iPr OCH3 O, Phosphoramidic acid, [[2,4,6-tris(1-methylethyl)phenyl]acetyl]-, 4-chloro-2,6-bis(1-methylethyl)phenyl methyl ester]
- IC50 [1]: > 5000 nM
- APCC ([2]; rat, in vivo, 10 mg/kg): -12

SMILES: COP(=O)(Cc1c(C(C)C)cccc1C(C)C)NC(=O)Cc1c(C(C)C)cc(C(C)C)cc1C(C)C (stereo not drawn) [H iPr OCH3 CH2, Phosphonamidic acid, P-[[2,6-bis(1-methylethyl)phenyl]methyl]-N-[[2,4,6-tris(1-methylethyl)phenyl]acetyl]-, methyl ester]
- IC50 [1]: 1200 nM

SMILES: CC(C)c1cc(C(C)C)c(CC(=O)NP(=O)(Oc2c(C(C)C)cccc2C(C)C)c2ccccc2)c(C(C)C)c1 (stereo not drawn) [H iPr Ph O, Phosphonamidic acid, P-phenyl-N-[[2,4,6-tris(1-methylethyl)phenyl]acetyl]-,2,6-bis(1-methylethyl)phenyl ester]
- IC50 [1]: 2500 nM
- APCC ([2]; rat, in vivo, 10 mg/kg): -25

- IC50 ([1]; rat liver microsomes): 3600 nM
SMILES: CC(C)c1cc(C(C)C)c(CP(N)(=O)OCc2ccccc2)c(C(C)C)c1 (stereo not drawn) [Monobenzyl, 2,4,6-triisopropylbenzylphosphonamide]
- APCC ([2]; dose 10 mg/kg, rats, single dose at 4 PM, PCC diet overnight, blood cholesterol at 8 AM): -4

SMILES: COP(=O)(Cc1c(C(C)C)cc(C(C)C)cc1C(C)C)NC(=O)Cc1c(C(C)C)cccc1C(C)C (stereo not drawn) [iPr H OCH3 CH2, Phosphonamidic acid, N-[[2,6-bis(1-methyl-ethyl)phenyl)acetyl]-P-[[2,4,6-tris(1-methyl-ethyl)phenyl)methyl]-, methyl ester]
- IC50 [1]: 290 nM
- APCC ([2]; rat, in vivo, 3 mg/kg): -44

SMILES: COP(=O)(NC(=O)Cc1c(C(C)C)cc(C(C)C)cc1C(C)C)Oc1c(C(C)C)cccc1C(C)C (stereo not drawn) [iPr H OCH3 O, [(2,4,6-Triisopropyl-phenyl)-acetyl]-phosphoramidic acid 2,6-diisopropyl-phenyl ester methyl ester]
- IC50 [1]: 4800 nM
- APCC ([2]; rat, in vivo, 1 mg/kg): -18

SMILES: COP(=O)(Cc1c(C(C)C)cc(C(C)C)cc1C(C)C)NC(=O)Cc1c(C(C)C)cc(C(C)C)cc1C(C)C (stereo not drawn) [iPr iPr OCH3 CH2, Phosphonamidic acid, N-[[2,4,6-tris(1-methylethyl)phenyl]acetyl]-P-[[2,4,6-tris(1-methylethyl)phenyl]methyl]-, methyl ester]
- IC50 [1]: 740 nM
